# Source: PMC10879502, “Linking ATP and allosteric sites to achieve superadditive binding with bivalent EGFR kinase inhibitors” (Communications Chemistry, 2024)
# Tests used:
# Assay in all cases: KINOMEscan
# Assay type in all cases: binding
# Settings in all cases: 1 μM
# TAOK1 = molecular target: T1, TAOK1 (Homo sapiens, UniProt Q7L7X3)
# T1 construct: purchased Eurofins DiscoverX Corporation
# EPHA6 = EPHA6 (Homo sapiens, UniProt Q9UF33)
# AURKC = AURKC (Homo sapiens, UniProt Q9UQB9)
# PIK3C2B = PIK3C2B (Homo sapiens, UniProt O00750)
# MAPKAPK2 = molecular target: T2, MAPKAPK2 (Homo sapiens, UniProt P49137)
# T2 construct: purchased Eurofins DiscoverX Corporation
# EGFR(E746-A750del) = EGFR(E746-A750del) (Homo sapiens, UniProt P00533, DEL746-750)
# PKN2 = PKN2 (Homo sapiens, UniProt Q16513)
# NEK3 = molecular target: T3, NEK3 (Homo sapiens, UniProt P51956)
# T3 construct: purchased Eurofins DiscoverX Corporation
# T3 sequence (P51956 whole entry): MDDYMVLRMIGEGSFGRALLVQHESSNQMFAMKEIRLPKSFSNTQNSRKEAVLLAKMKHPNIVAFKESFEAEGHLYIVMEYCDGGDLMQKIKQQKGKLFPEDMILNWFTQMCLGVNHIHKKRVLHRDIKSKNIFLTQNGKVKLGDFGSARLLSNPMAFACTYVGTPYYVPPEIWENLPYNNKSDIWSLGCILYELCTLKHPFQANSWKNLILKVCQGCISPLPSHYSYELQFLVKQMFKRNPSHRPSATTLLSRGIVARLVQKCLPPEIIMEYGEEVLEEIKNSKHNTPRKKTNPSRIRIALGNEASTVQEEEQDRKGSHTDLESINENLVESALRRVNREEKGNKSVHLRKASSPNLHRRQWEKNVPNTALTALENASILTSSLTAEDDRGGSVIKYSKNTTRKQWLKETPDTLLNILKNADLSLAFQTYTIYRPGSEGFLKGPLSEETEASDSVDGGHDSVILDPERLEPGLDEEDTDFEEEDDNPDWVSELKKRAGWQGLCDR
# MAP4K5 = molecular target: T4, MAP4K5 (Homo sapiens, UniProt Q9Y4K4)
# T4 construct: purchased Eurofins DiscoverX Corporation
# PFCDPK1(P.falciparum) = PFCDPK1(P.falciparum) (Plasmodium falciparum, UniProt P62344)
# CAMK1G = molecular target: T5, CAMK1G (Homo sapiens, UniProt Q96NX5)
# T5 construct: purchased Eurofins DiscoverX Corporation (KINOMEscan)
# PIM3 = PIM3 (Homo sapiens, UniProt Q86V86)
# KIT(V559D+T670I) = molecular target: T6, KIT(V559D+T670I) (Homo sapiens, UniProt P10721, T670I/V559D)
# T6 construct: purchased Eurofins DiscoverX Corporation
# FES = FES (Homo sapiens, UniProt P07332)
# ERBB4 = ERBB4 (Homo sapiens, UniProt Q15303)
# RET(V804M) = RET(V804M) (Homo sapiens, UniProt P07949, V804M)
# ASK2 = ASK2 (Homo sapiens, UniProt O95382)
# CDKL5 = CDKL5 (Homo sapiens, UniProt O76039)
# Sequence of CDKL5 (O76039 whole entry): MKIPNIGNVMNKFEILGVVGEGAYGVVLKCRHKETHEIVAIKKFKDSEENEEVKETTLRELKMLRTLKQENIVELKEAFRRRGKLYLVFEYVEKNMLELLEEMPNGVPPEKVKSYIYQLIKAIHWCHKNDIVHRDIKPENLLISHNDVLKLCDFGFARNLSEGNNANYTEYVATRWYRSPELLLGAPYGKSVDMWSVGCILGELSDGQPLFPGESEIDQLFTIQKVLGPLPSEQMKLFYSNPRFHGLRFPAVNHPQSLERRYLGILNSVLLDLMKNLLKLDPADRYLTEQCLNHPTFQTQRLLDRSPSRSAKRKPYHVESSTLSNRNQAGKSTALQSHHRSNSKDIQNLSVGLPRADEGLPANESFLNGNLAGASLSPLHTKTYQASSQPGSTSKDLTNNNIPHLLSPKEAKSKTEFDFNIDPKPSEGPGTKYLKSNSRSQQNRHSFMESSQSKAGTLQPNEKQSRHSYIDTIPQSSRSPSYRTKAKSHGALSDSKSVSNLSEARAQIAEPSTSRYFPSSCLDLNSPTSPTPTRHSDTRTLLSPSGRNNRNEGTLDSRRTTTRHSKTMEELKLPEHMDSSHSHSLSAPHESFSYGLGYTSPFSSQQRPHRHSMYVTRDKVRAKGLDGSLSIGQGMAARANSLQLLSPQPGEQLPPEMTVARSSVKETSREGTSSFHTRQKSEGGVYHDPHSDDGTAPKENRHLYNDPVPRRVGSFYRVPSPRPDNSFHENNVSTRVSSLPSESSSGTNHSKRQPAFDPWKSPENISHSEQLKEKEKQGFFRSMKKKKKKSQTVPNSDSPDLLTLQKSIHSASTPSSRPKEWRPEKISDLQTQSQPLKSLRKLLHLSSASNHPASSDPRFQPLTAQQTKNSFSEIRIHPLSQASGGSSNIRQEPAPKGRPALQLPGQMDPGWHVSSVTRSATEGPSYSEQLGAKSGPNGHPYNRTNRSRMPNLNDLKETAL
# WNK3 = WNK3 (Homo sapiens, UniProt Q9BYP7)
# TESK1 = molecular target: T7, TESK1 (Homo sapiens, UniProt Q15569)
# T7 construct: purchased Eurofins DiscoverX Corporation
# HPK1 = molecular target: T8, HPK1 (Homo sapiens, UniProt Q92918)
# T8 construct: purchased Eurofins DiscoverX (KINOMEscan)
# HIPK3 = molecular target: T9, HIPK3 (Homo sapiens, UniProt Q9H422)
# T9 construct: purchased Eurofins DiscoverX Corporation
# T9 sequence (Q9H422 whole entry): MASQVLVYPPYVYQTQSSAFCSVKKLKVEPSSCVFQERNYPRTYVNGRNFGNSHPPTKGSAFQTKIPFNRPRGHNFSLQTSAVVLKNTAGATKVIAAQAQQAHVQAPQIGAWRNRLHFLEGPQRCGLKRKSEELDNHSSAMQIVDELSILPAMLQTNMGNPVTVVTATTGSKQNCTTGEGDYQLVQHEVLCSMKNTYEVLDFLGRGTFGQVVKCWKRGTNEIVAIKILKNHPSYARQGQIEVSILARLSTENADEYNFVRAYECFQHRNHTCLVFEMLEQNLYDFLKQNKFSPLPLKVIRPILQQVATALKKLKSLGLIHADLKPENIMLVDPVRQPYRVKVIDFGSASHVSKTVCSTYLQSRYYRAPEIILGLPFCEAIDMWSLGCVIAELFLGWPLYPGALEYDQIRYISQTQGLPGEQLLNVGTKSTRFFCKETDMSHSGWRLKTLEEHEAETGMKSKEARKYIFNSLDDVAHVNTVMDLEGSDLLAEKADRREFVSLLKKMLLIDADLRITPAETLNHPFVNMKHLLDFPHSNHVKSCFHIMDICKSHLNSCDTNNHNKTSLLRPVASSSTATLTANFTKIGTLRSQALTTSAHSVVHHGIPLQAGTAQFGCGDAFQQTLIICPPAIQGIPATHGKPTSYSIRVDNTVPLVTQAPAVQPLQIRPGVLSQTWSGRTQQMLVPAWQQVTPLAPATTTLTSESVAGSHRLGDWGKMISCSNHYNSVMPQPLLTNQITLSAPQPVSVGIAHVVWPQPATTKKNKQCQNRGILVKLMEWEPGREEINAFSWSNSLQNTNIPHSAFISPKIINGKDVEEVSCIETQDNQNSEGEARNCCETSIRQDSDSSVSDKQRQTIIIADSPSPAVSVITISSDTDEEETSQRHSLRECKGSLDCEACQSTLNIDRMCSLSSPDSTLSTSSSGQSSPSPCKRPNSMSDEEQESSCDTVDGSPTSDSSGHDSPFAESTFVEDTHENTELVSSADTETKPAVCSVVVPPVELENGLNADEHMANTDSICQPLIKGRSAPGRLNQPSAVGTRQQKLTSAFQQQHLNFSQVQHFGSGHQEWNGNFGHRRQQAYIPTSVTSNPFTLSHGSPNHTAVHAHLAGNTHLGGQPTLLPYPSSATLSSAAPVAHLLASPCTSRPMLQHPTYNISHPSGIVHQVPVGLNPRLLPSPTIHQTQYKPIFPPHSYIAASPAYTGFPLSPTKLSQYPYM
# MLK3 = molecular target: T10, MLK3 (Homo sapiens, UniProt Q16584)
# T10 construct: purchased Eurofins DiscoverX Corporation
# TGFBR2 = molecular target: T11, TGFBR2 (Homo sapiens, UniProt P37173)
# T11 construct: purchased Eurofins DiscoverX Corporation
# DCAMKL3 = molecular target: T12, DCAMKL3 (Homo sapiens, UniProt Q9C098)
# T12 construct: purchased Eurofins DiscoverX Corporation
# PIK3CA(E542K) = PIK3CA(E542K) (Homo sapiens, UniProt P42336, E542K)
# DAPK2 = molecular target: T13, DAPK2 (Homo sapiens, UniProt Q9UIK4)
# T13 construct: purchased Eurofins DiscoverX Corporation
# NDR2 = molecular target: T14, NDR2 (Homo sapiens, UniProt Q9Y2H1)
# T14 construct: purchased Eurofins DiscoverX Corporation
# STK39 = molecular target: T15, STK39 (Homo sapiens, UniProt Q9UEW8)
# T15 construct: purchased Eurofins DiscoverX Corporation
# VPS34 = VPS34 (Homo sapiens, UniProt Q8NEB9)
# HCK = molecular target: T16, HCK (Homo sapiens, UniProt P08631)
# T16 construct: purchased Eurofins DiscoverX Corporation
# RIPK5 = RIPK5 (Homo sapiens, UniProt Q6XUX3)
# NEK11 = molecular target: T17, NEK11 (Homo sapiens, UniProt Q8NG66)
# T17 construct: purchased Eurofins DiscoverX Corporation
# MKNK1 = molecular target: T18, MKNK1 (Homo sapiens, UniProt Q9BUB5)
# T18 construct: purchased Eurofins DiscoverX Corporation
# T18 sequence (Q9BUB5 whole entry): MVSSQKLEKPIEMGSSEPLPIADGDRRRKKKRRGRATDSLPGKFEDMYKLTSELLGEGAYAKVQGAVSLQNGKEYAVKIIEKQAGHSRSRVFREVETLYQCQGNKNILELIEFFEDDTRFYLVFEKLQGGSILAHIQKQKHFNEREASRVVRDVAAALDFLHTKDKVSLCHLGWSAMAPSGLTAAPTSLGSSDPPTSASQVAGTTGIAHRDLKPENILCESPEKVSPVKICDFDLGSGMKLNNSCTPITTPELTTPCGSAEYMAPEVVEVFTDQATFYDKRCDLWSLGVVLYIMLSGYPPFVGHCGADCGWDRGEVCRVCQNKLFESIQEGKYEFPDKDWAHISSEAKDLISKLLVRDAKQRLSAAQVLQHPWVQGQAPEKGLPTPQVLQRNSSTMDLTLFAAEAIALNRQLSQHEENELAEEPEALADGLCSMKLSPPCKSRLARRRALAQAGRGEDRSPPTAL
# RET(M918T) = RET(M918T) (Homo sapiens, UniProt P07949, M918T)
# MAP3K4 = molecular target: T19, MAP3K4 (Homo sapiens, UniProt Q9Y6R4)
# T19 construct: purchased Eurofins DiscoverX Corporation
# [1] = molecular target: T20, ABL1(T315I)-nonphosphorylated (Homo sapiens, UniProt P00519, T315I)
# T20 construct: purchased Eurofins DiscoverX Corporation
# ABL1-phosphorylated = molecular target: T21, ABL1-phosphorylated (Homo sapiens, UniProt P00519)
# T21 construct: purchased Eurofins DiscoverX Corporation
# SNARK = SNARK (Homo sapiens, UniProt Q9H093)
# Sequence of SNARK (Q9H093 whole entry): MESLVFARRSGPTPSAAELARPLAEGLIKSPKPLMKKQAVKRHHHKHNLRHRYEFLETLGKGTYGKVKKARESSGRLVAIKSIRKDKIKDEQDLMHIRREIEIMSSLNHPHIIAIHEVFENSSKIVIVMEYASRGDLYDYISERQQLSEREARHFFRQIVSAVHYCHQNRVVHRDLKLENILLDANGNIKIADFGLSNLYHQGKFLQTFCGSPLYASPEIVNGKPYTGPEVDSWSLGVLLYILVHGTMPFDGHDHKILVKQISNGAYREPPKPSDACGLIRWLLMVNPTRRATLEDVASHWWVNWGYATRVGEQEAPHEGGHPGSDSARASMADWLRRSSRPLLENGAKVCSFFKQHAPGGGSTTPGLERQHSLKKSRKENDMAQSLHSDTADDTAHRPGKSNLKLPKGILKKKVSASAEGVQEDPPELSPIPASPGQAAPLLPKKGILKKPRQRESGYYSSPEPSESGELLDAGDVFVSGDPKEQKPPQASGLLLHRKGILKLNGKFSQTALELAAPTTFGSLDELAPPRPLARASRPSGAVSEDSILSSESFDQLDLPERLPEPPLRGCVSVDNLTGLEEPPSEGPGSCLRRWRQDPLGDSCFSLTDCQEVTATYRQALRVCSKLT
# EPHA3 = EPHA3 (Homo sapiens, UniProt P29320)
# TBK1 = molecular target: T22, TBK1 (Homo sapiens, UniProt Q9UHD2)
# T22 construct: purchased Eurofins DiscoverX Corporation
# CDK9 = CDK9 (Homo sapiens, UniProt P50750)
# Sequence of EPHA6 (Q9UF33 23-1036): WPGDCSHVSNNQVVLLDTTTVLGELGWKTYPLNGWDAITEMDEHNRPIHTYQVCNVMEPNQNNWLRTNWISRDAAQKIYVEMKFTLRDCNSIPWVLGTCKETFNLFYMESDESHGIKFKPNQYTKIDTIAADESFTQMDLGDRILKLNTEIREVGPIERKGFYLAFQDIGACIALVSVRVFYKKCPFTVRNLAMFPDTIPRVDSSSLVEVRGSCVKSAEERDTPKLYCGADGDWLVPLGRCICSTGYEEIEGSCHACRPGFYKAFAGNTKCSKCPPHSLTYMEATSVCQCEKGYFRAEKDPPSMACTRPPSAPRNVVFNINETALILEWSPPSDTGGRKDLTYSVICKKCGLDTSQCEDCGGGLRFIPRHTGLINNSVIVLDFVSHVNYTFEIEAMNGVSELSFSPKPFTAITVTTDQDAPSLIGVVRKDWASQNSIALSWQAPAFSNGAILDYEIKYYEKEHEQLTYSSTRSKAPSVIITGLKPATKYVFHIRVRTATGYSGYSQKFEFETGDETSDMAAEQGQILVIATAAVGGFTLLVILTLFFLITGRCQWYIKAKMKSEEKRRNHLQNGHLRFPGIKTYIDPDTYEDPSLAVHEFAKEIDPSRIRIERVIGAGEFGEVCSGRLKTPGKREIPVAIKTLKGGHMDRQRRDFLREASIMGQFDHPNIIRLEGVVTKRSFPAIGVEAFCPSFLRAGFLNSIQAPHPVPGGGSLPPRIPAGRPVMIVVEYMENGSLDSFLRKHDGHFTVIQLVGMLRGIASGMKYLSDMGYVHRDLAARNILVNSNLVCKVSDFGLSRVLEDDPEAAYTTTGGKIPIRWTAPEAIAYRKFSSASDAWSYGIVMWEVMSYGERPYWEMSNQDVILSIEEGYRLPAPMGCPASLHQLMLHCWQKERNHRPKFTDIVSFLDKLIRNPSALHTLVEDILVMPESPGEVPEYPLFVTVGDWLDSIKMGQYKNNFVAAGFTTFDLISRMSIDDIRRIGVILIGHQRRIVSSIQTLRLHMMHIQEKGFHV
structure (smiles),measurement,setting,value
C=CC(=O)Nc1ccc(OC)c(Nc2cc(-c3[nH]c(CC)nc3-c3cccc(NC(=O)c4cccc5c4NC(=O)c4ccccc4N5)c3)ccn2)c1 [Compound 4],POC,TAOK1,100% of control
same,POC,EPHA6,90% of control
same,POC,AURKC,100% of control
same,POC,PIK3C2B,74% of control
same,POC,MAPKAPK2,100% of control
same,POC,EGFR(E746-A750del),13% of control
same,POC,PKN2,100% of control
same,POC,NEK3,100% of control
same,POC,MAP4K5,2.5% of control
same,POC,PFCDPK1(P.falciparum),87% of control
same,POC,CAMK1G,100% of control
same,POC,PIM3,100% of control
same,POC,KIT(V559D+T670I),95% of control
same,POC,FES,28% of control
same,POC,ERBB4,4.9% of control
same,POC,RET(V804M),91% of control
same,POC,ASK2,100% of control
same,POC,CDKL5,98% of control
same,POC,WNK3,78% of control
same,POC,TESK1,94% of control
same,POC,HPK1,45% of control
same,POC,HIPK3,100% of control
same,POC,MLK3,97% of control
same,POC,TGFBR2,75% of control
same,POC,DCAMKL3,86% of control
same,POC,PIK3CA(E542K),100% of control
same,POC,DAPK2,100% of control
same,POC,NDR2,77% of control
same,POC,STK39,85% of control
same,POC,VPS34,84% of control
same,POC,HCK,14% of control
same,POC,RIPK5,79% of control
same,POC,NEK11,100% of control
same,POC,MKNK1,100% of control
same,POC,RET(M918T),99% of control
same,POC,MAP3K4,100% of control
same,POC,[1],98% of control
same,POC,ABL1-phosphorylated,80% of control
same,POC,SNARK,100% of control
same,POC,EPHA3,81% of control
same,POC,TBK1,95% of control
same,POC,CDK9,100% of control
